Literature values as cited in patent EP4537663A1, “INCLUSION COMPLEX COMPRISING TRYPTOPHAN AND ARGININE; FERTILISING, BIOSTIMULANT AND ANTIMICROBIAL COMPOSITION COMPRISING SAME; PRODUCTION METHOD THEREOF; AND USE THEREOF” (Universidad de Valladolid, priority 2022, dated 2023).
In brackets after ≈: the same amount, converted by molar mass.

Settings: at 25°C

- solubility in water: ~11.4 mg/mL (≈ 55.8 mM)
Structure (SMILES): N[C@@H](Cc1c[nH]c2ccccc12)C(=O)O [tryptophan]
